Data from the supplement of paper PMC8612539.

Test system: Escherichia coli
Assay: minimum inhibitory concentration (MIC)
Description: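 Broth microdilution MIC (Sensititre BOPO7F bovine plate, CLSI methods) of 19 antimicrobials against field isolates of P. multocida, M. haemolytica, H. somni (deep nasopharyngeal swabs) and E. coli, Enterococcus spp. (rectal swabs) from weaned dairy heifers. Incubation 16-24 h at 35 C. MIC is the lowest concentration preventing visible growth. Values with <= or > lie at the tested range limits. Trimethoprim-sulfamethoxazole is given as the trimethoprim component of a 1:19 mixture.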

COc1cc(Cc2cnc(N)nc2N)cc(OC)c1OC.Cc1cc(NS(=O)(=O)c2ccc(N)cc2)no1 [trimethoprim-sulfamethoxazole]
Details	minimum inhibitory concentration [µg/mL]
isolate (source animal id): 1	≤ 2
isolate (source animal id): 2	> 2
isolate (source animal id): 3	≤ 2
isolate (source animal id): 4	≤ 2
isolate (source animal id): 5	> 2
isolate (source animal id): 6	> 2
isolate (source animal id): 7	> 2
isolate (source animal id): 8	≤ 2
isolate (source animal id): 9	> 2
isolate (source animal id): 10	> 2
isolate (source animal id): 11	≤ 2
isolate (source animal id): 12	> 2
isolate (source animal id): 13	≤ 2
isolate (source animal id): 14	> 2
isolate (source animal id): 15	≤ 2
isolate (source animal id): 16	≤ 2
isolate (source animal id): 17	> 2
isolate (source animal id): 18	≤ 2
isolate (source animal id): 19	≤ 2
isolate (source animal id): 20	> 2
isolate (source animal id): 21	≤ 2
isolate (source animal id): 22	≤ 2
isolate (source animal id): 23	≤ 2
isolate (source animal id): 24	≤ 2
isolate (source animal id): 25	> 2
isolate (source animal id): 26	≤ 2
isolate (source animal id): 27	> 2
isolate (source animal id): 28	≤ 2
isolate (source animal id): 29	> 2
isolate (source animal id): 30	> 2
isolate (source animal id): 31	> 2
isolate (source animal id): 32	> 2
isolate (source animal id): 33	> 2
isolate (source animal id): 34	≤ 2
isolate (source animal id): 35	> 2
isolate (source animal id): 36	> 2
isolate (source animal id): 37	> 2
isolate (source animal id): 38	> 2
isolate (source animal id): 39	> 2
isolate (source animal id): 40	≤ 2
isolate (source animal id): 41	> 2
isolate (source animal id): 42	> 2
isolate (source animal id): 43	> 2
isolate (source animal id): 44	≤ 2
isolate (source animal id): 45	> 2
isolate (source animal id): 46	≤ 2
isolate (source animal id): 47	> 2
isolate (source animal id): 48	> 2
isolate (source animal id): 49	> 2
isolate (source animal id): 50	> 2
isolate (source animal id): 51	> 2
isolate (source animal id): 52	≤ 2
isolate (source animal id): 53	> 2
isolate (source animal id): 54	≤ 2
isolate (source animal id): 55	≤ 2
isolate (source animal id): 56	≤ 2
isolate (source animal id): 57	> 2
isolate (source animal id): 58	≤ 2
isolate (source animal id): 59	≤ 2
isolate (source animal id): 60	≤ 2
isolate (source animal id): 61	> 2
isolate (source animal id): 62	≤ 2
isolate (source animal id): 63	≤ 2
isolate (source animal id): 64	≤ 2
isolate (source animal id): 65	> 2
isolate (source animal id): 66	≤ 2
isolate (source animal id): 67	≤ 2
isolate (source animal id): 68	≤ 2
isolate (source animal id): 69	≤ 2
isolate (source animal id): 70	≤ 2
isolate (source animal id): 71	≤ 2
isolate (source animal id): 72	≤ 2
isolate (source animal id): 73	≤ 2
isolate (source animal id): 74	≤ 2
isolate (source animal id): 75	≤ 2
isolate (source animal id): 76	> 2
isolate (source animal id): 77	≤ 2
isolate (source animal id): 78	> 2
isolate (source animal id): 79	≤ 2
isolate (source animal id): 80	≤ 2
isolate (source animal id): 81	> 2
isolate (source animal id): 82	≤ 2
isolate (source animal id): 83	≤ 2
isolate (source animal id): 84	≤ 2
isolate (source animal id): 85	≤ 2
isolate (source animal id): 86	> 2
isolate (source animal id): 87	≤ 2
isolate (source animal id): 88	≤ 2
isolate (source animal id): 89	≤ 2
isolate (source animal id): 90	≤ 2
isolate (source animal id): 91	≤ 2
isolate (source animal id): 92	≤ 2
isolate (source animal id): 93	≤ 2
isolate (source animal id): 94	> 2
isolate (source animal id): 95	≤ 2
isolate (source animal id): 96	≤ 2
isolate (source animal id): 97	> 2
isolate (source animal id): 98	≤ 2
isolate (source animal id): 99	≤ 2
isolate (source animal id): 100	≤ 2
isolate (source animal id): 101	> 2
isolate (source animal id): 102	≤ 2
isolate (source animal id): 103	≤ 2
isolate (source animal id): 104	≤ 2
isolate (source animal id): 105	≤ 2
isolate (source animal id): 106	> 2
isolate (source animal id): 107	≤ 2
isolate (source animal id): 108	≤ 2
isolate (source animal id): 109	≤ 2
isolate (source animal id): 110	≤ 2
isolate (source animal id): 111	≤ 2
isolate (source animal id): 112	≤ 2
isolate (source animal id): 113	≤ 2
isolate (source animal id): 114	≤ 2
isolate (source animal id): 115	> 2
isolate (source animal id): 116	≤ 2
isolate (source animal id): 117	≤ 2
isolate (source animal id): 118	≤ 2
isolate (source animal id): 119	> 2
isolate (source animal id): 120	> 2
isolate (source animal id): 121	> 2
isolate (source animal id): 122	> 2
isolate (source animal id): 123	≤ 2
isolate (source animal id): 124	> 2
isolate (source animal id): 125	≤ 2
isolate (source animal id): 126	> 2
isolate (source animal id): 127	> 2
isolate (source animal id): 128	≤ 2
isolate (source animal id): 129	≤ 2
isolate (source animal id): 130	> 2
isolate (source animal id): 131	≤ 2
isolate (source animal id): 132	≤ 2
isolate (source animal id): 133	≤ 2
isolate (source animal id): 134	≤ 2
isolate (source animal id): 135	≤ 2
isolate (source animal id): 136	≤ 2
isolate (source animal id): 137	≤ 2
isolate (source animal id): 138	> 2
isolate (source animal id): 139	> 2
isolate (source animal id): 140	≤ 2
isolate (source animal id): 141	> 2
isolate (source animal id): 142	≤ 2
isolate (source animal id): 143	> 2
isolate (source animal id): 144	≤ 2
isolate (source animal id): 145	> 2
isolate (source animal id): 146	≤ 2
isolate (source animal id): 147	> 2
isolate (source animal id): 148	≤ 2
isolate (source animal id): 149	≤ 2
isolate (source animal id): 150	> 2
isolate (source animal id): 151	≤ 2
isolate (source animal id): 152	≤ 2
isolate (source animal id): 153	≤ 2
isolate (source animal id): 154	≤ 2
isolate (source animal id): 155	≤ 2
isolate (source animal id): 156	> 2
isolate (source animal id): 157	≤ 2
isolate (source animal id): 158	≤ 2
isolate (source animal id): 159	≤ 2
isolate (source animal id): 160	> 2
isolate (source animal id): 161	> 2
isolate (source animal id): 162	≤ 2
isolate (source animal id): 163	≤ 2
isolate (source animal id): 164	≤ 2
isolate (source animal id): 165	≤ 2
isolate (source animal id): 166	≤ 2
isolate (source animal id): 167	≤ 2
isolate (source animal id): 168	≤ 2
isolate (source animal id): 169	≤ 2
isolate (source animal id): 170	≤ 2
isolate (source animal id): 171	≤ 2
isolate (source animal id): 172	≤ 2
isolate (source animal id): 173	≤ 2
isolate (source animal id): 174	≤ 2
isolate (source animal id): 175	≤ 2
isolate (source animal id): 176	≤ 2
isolate (source animal id): 177	≤ 2
isolate (source animal id): 178	≤ 2
isolate (source animal id): 179	≤ 2
isolate (source animal id): 180	≤ 2
isolate (source animal id): 181	≤ 2
isolate (source animal id): 182	≤ 2
isolate (source animal id): 183	≤ 2
isolate (source animal id): 184	≤ 2
isolate (source animal id): 185	≤ 2
isolate (source animal id): 186	≤ 2
isolate (source animal id): 187	≤ 2
isolate (source animal id): 188	> 2
isolate (source animal id): 189	≤ 2
isolate (source animal id): 190	> 2
isolate (source animal id): 191	≤ 2
isolate (source animal id): 192	≤ 2
isolate (source animal id): 193	≤ 2
isolate (source animal id): 194	≤ 2
isolate (source animal id): 195	≤ 2
isolate (source animal id): 196	≤ 2
isolate (source animal id): 197	≤ 2
isolate (source animal id): 198	> 2
isolate (source animal id): 199	≤ 2
isolate (source animal id): 200	≤ 2
isolate (source animal id): 201	≤ 2
isolate (source animal id): 202	≤ 2
isolate (source animal id): 203	≤ 2
isolate (source animal id): 204	≤ 2
isolate (source animal id): 205	≤ 2
isolate (source animal id): 206	≤ 2
isolate (source animal id): 207	≤ 2
isolate (source animal id): 208	≤ 2
isolate (source animal id): 209	≤ 2
isolate (source animal id): 210	≤ 2
isolate (source animal id): 211	≤ 2
isolate (source animal id): 212	≤ 2
isolate (source animal id): 213	≤ 2
isolate (source animal id): 214	≤ 2
isolate (source animal id): 215	≤ 2
isolate (source animal id): 216	> 2
isolate (source animal id): 217	≤ 2
isolate (source animal id): 218	≤ 2
isolate (source animal id): 219	≤ 2
isolate (source animal id): 220	≤ 2
isolate (source animal id): 221	≤ 2
isolate (source animal id): 222	≤ 2
isolate (source animal id): 223	≤ 2
isolate (source animal id): 224	≤ 2
isolate (source animal id): 225	≤ 2
isolate (source animal id): 226	> 2
isolate (source animal id): 227	≤ 2
isolate (source animal id): 228	≤ 2
isolate (source animal id): 229	> 2
isolate (source animal id): 230	≤ 2
isolate (source animal id): 231	≤ 2
isolate (source animal id): 232	≤ 2
isolate (source animal id): 233	≤ 2
isolate (source animal id): 234	≤ 2
isolate (source animal id): 235	≤ 2
isolate (source animal id): 236	≤ 2
isolate (source animal id): 237	≤ 2
isolate (source animal id): 238	≤ 2
isolate (source animal id): 239	≤ 2
isolate (source animal id): 240	≤ 2
isolate (source animal id): 241	≤ 2
isolate (source animal id): 242	≤ 2
isolate (source animal id): 243	≤ 2
isolate (source animal id): 244	≤ 2
isolate (source animal id): 245	≤ 2
isolate (source animal id): 246	≤ 2
isolate (source animal id): 247	≤ 2
isolate (source animal id): 248	≤ 2
isolate (source animal id): 249	≤ 2
isolate (source animal id): 250	≤ 2
isolate (source animal id): 251	≤ 2
isolate (source animal id): 252	≤ 2
isolate (source animal id): 253	≤ 2
isolate (source animal id): 254	≤ 2
isolate (source animal id): 255	≤ 2
isolate (source animal id): 256	≤ 2
isolate (source animal id): 257	≤ 2
isolate (source animal id): 258	≤ 2
isolate (source animal id): 259	> 2
isolate (source animal id): 260	≤ 2
isolate (source animal id): 261	≤ 2
isolate (source animal id): 262	≤ 2
isolate (source animal id): 263	≤ 2
isolate (source animal id): 264	≤ 2
isolate (source animal id): 265	≤ 2
isolate (source animal id): 266	≤ 2
isolate (source animal id): 267	≤ 2
isolate (source animal id): 268	≤ 2
isolate (source animal id): 269	≤ 2
isolate (source animal id): 270	≤ 2
isolate (source animal id): 271	≤ 2
isolate (source animal id): 272	≤ 2
isolate (source animal id): 273	≤ 2
isolate (source animal id): 274	> 2
isolate (source animal id): 275	> 2
isolate (source animal id): 276	≤ 2
isolate (source animal id): 277	≤ 2
isolate (source animal id): 278	≤ 2
isolate (source animal id): 279	≤ 2
isolate (source animal id): 280	≤ 2
isolate (source animal id): 281	≤ 2
isolate (source animal id): 282	≤ 2
isolate (source animal id): 283	≤ 2
isolate (source animal id): 284	≤ 2
isolate (source animal id): 285	≤ 2
isolate (source animal id): 286	> 2
isolate (source animal id): 287	> 2
isolate (source animal id): 288	≤ 2
isolate (source animal id): 289	≤ 2
isolate (source animal id): 290	≤ 2
isolate (source animal id): 291	> 2
isolate (source animal id): 292	> 2
isolate (source animal id): 293	≤ 2
isolate (source animal id): 294	≤ 2
isolate (source animal id): 295	> 2
isolate (source animal id): 296	≤ 2
isolate (source animal id): 297	≤ 2
isolate (source animal id): 298	> 2
isolate (source animal id): 299	≤ 2
isolate (source animal id): 300	≤ 2
isolate (source animal id): 301	≤ 2
isolate (source animal id): 302	≤ 2
isolate (source animal id): 303	≤ 2
isolate (source animal id): 304	> 2
isolate (source animal id): 305	≤ 2
isolate (source animal id): 306	≤ 2
isolate (source animal id): 307	≤ 2
isolate (source animal id): 308	≤ 2
isolate (source animal id): 309	≤ 2
isolate (source animal id): 310	≤ 2
isolate (source animal id): 311	> 2
isolate (source animal id): 312	≤ 2
isolate (source animal id): 313	≤ 2
isolate (source animal id): 314	≤ 2
isolate (source animal id): 315	≤ 2
isolate (source animal id): 316	> 2
isolate (source animal id): 317	> 2
isolate (source animal id): 318	≤ 2
isolate (source animal id): 319	≤ 2
isolate (source animal id): 320	≤ 2
isolate (source animal id): 321	> 2
isolate (source animal id): 322	≤ 2
isolate (source animal id): 323	> 2
isolate (source animal id): 324	≤ 2
isolate (source animal id): 325	> 2
isolate (source animal id): 326	≤ 2
isolate (source animal id): 327	≤ 2
isolate (source animal id): 328	≤ 2
isolate (source animal id): 329	≤ 2
isolate (source animal id): 330	≤ 2
isolate (source animal id): 331	≤ 2
isolate (source animal id): 332	≤ 2
isolate (source animal id): 333	≤ 2
isolate (source animal id): 334	> 2
isolate (source animal id): 335	≤ 2
isolate (source animal id): 336	≤ 2
isolate (source animal id): 337	≤ 2
isolate (source animal id): 338	> 2
isolate (source animal id): 339	≤ 2
isolate (source animal id): 340	≤ 2
isolate (source animal id): 341	≤ 2
